According to patent publication EP3861991A1, “COMPOSITION FOR PREVENTING AND TREATING ACUTE AND CHRONIC WOUNDS” (Foodar Advanced Research S.r.l., priority 2020, dated 2021):

Test system: HDF cells
Assay: Scratch assay: fibroblast cell migration and wound closure
Type: cell-based, Human
Conditions: 10 µM, single components, Fig. 2
Method: Human dermal fibroblasts (HDF) (ATCC, Manassas, VA, USA) were grown in fibroblast basal medium supplemented with fibroblast growth kit-serum free (ATCC). Activation, proliferation and migration of fibroblasts are the primary steps in wound healing, where multiple cell types and other micro environmental factors are involved. Scratch assay is a widely applied In vitro technique for understanding the wound healing capabilities of medicinally important compounds. HDF cells were seeded in 6-well plates and were cultured overnight. Cells were then washed with Delbucco's Phosphate Buffered Saline (DPBS) and a scratch was made with a sterile 200µL tip. The detached cells and other cellular debris were removed by washing the cells with DPBS. The cells were treated with 10 µM of AND (source of Example 1), HYX (source of Example 1), or AND + HYX (1/1 ratio, same sources) and incubated for 24 h. Untreated cells were negative control. […] The experiments were performed in triplicate (n = 3). The width of the scratch and wound closure at different time intervals (0, 12, 24 and 48hrs) was analyzed by Image J software.

Question: With `C=C1CC[C@@H]2[C@](C)(CO)[C@H](O)CC[C@@]2(C)[C@@H]1C/C=C1/C(=O)OC[C@H]1O` [AND, 3-[2-[Decahydro-6-hydroxy-5-(hydroxymethyl)-5,8a-dimethyl-2-methylene-1-napthalenyl]ethylidene]dihydro-4-hydroxy-2(3H)-furanone] as the compound, how does the “percentage of cell migration (in words, relative to the AND+HYX combination)” value read?
Answer: well lower
